From patent US7456197B2, “Pyridinium cationic lipids as gene transfer agents” (The Texas A&M University System, priority 2003, dated 2008)
Entries after “also recorded” stand apart in the source; their conditions may differ.

How the values were obtained:
[1] = Critical (phase transition) temperature Tc by differential scanning calorimetry; format: physicochemical; details: for Tc (critical temperature), Pure: pure lipid
Method: General. Melting points for the diols and the phase transition temperature Tc for the cationic lipids were determined by differential scanning calorimetry (DSC), using a TA-Instruments Q100 DSC, and a heating rate of 5° C./minute. The IR spectra were recorded on a Nicolet Avatar 360 FTIR spectrophotometer in the range 650-4000 cm^−1 using a ZnSe—attenuated total reflectance (ATR) accessory. The compounds were solved in a small amount of solvent (MeOH for the diols, CHCl3 for the lipids), and the resulted solutions were left to evaporate to dryness on the surface of the ZnSe crystals of the ATR accessory. The NMR spectra were recorded at ≈303 K with a Varian Inova spectrometer equipped with a 5 mm indirect detection probe, operating at 500 MHz for ^1H-NMR and at 125 MHz for ^13C-NMR. Chemical shifts are reported as δ values, using TMS as internal standard for proton spectra and the solvent resonance for carbon spectra. Assignments were made based on signal intensity, selective decoupling, COSY (^1H-^1H) and HETCOR (^1H-^13C) sequences. Elemental analyses were performed by combustion, using a Perkin Elmer 2400 Series II CHNS analyser.
(§1) Dioleoylphosphatidylethanolamine (DOPE), cholesterol (CHOL), N-(2,3-dioleoyloxypropyl)-N,N,N-trimethylammonium chloride (DOTAP) were commercial products. The purity of the lipids was checked by thin layer chromatography and also by differential scanning calorimetry (DSC), which was also used for determining the critical temperature Tc. For the preparation of the liposomes a protocol optimized for this type of compounds was adopted as follows. The cationic lipid (with or without helper lipid) was dissolved in chloroform/methanol (2/1, v/v) to reach a final concentration of 1 mM for the charged species. From this stock solution 50 μL were aliquoted in a 1 mL tube and the solvent was evaporated in a SpeedVac evaporator, under vacuum, for 1 h. The dried lipid film was prepared by removing the traces of organic solvent in a dessicator, over Drierite®, under vacuum, overnight. The film was hydrated with 500 μL sterile phosphate buffer saline (PBS) the tube was purged with sterile N2, and vortexed for 1 minute. The liposomes were generated by sonicating the tube in a water bath sonicator for 5-30 minutes at 62° C. and at 37° C. for DOTAP. After sonication the preparations were allowed to reach room temperature.
Materials and Methods. Melting points for the diols, acetates and ketals were determined on a Boetius heating plate microscope and are uncorrected. For the cationic lipids 21 and 25 the phase transition temperature Tc was determined by differential scanning calorimetry (DSC), using a TA-Instruments Q100 DSC, and a heating rate of 5° C./minute. The IR spectra were recorded on a Nicolet Avatar 360 FTIR spectrophotometer, in the range 650-4000 cm^−1, using a ZnSe—attenuated total reflectance (ATR) accessory. The compounds were solved in a small amount of solvent (MeOH for the diols, CHCl3 for the esters), the resulted solutions being left to evaporate to dryness on the surface of the ZnSe crystals of the ATR accessory. This technique was imposed by the poor results obtained in transmission mode for some of the compounds, due to the lack of crystallization, hygroscopicity and other problems related with working with KBr pellets. The NMR spectra were recorded at ≈303 K with a Varian Gemini 300BB spectrometer operating at 300 MHz for ^1H and at 75 MHz for ^13C. Chemical shifts are reported as δ values, using TMS as internal standard for proton spectra and the solvent resonance for carbon spectra: 77.00 ppm in CDCl3, 39.50 ppm in DMSO-d6, the line from 123.50 ppm in pyridine-d5, 62.80 ppm in nitromethane-d3, 30.10 ppm in dimethylformamide-d7. Assignments were made based on signal intensity, selective decoupling and COSY (^1H-^1H) and HETCOR (^1H-^13C) sequences. Nitrogen elemental analysis was performed by combustion, mixing the samples with small amounts of quartz sand.

cancer cell line NCI-H23 = experiment: WST-1 viability assay of transfected cells; format: cell-based, human; details: for cytotoxicity (WST-1 viability): NCI-H23 transfected with lipoplexes, Chol 1:1, FIG. 6
Method: FIG. 6. Viability assay results for the cancer cell line NCI-H23 transfected with 5AMyr-5EMyr and DOTAP (Cl^−)-based lipoplexes. The other characteristics were the same as in the transfection experiment represented in FIG. 5.
In order to assess the cytotoxicity associated with every anion, a WST-1^28 viability assay was conducted in parallel.

[2] = tested on: lung cancer cell line NCI-H23; experiment: Luciferase (pGL3) transfection efficiency of lipoplexes, NCI-H23; format: cell-based, human; details: for transfection efficiency, counterion study: 5Myr/Chol 1:1, PBS, sonicated two sequences of 15 minutes, FIG. 5; for transfection efficiency (in words): cholesterol as helper lipid 1:1, charge ratio lipid/DNA 2:1
Method: (§2) The three series of cationic lipids newly synthesized were assessed for their transfection efficiency in vitro, using the experimental conditions optimized in a previous study.^23 Essentially the cationic lipids were mixed with cholesterol at a 1:1 molar ratio, dissolved in chloroform/methanol and dried under vacuum to generate a lipid film. The dried lipid film was hydrated with sterile phosphate buffer isotonic saline with pH=7.4 (PBS) and sonicated to yield cationic liposomes. The resulting liposomal solution was allowed to react with a DNA solution to form the final cationic lipid-DNA complexes (lipoplexes), which were assessed for transfection efficiency using different cell cultures. We used a pGL3 plasmid (Promega, Madison, Wisc.), encoding a firefly luciferase gene under the control of the constitutively active SV40 promoter as the reporter for the transfection efficiency. An optimal^23 electrostatic charge ratio cationic lipid/DNA of 2:1 was used in all preparations. […] The ability of these new cationic lipids to generate relatively small cationic liposomes could be attributed to the relatively large curvature radius induced in the bilayer by the bulky pyridinium cationic head.
as §1
For generating the lipoplexes, 1.4-2.8 μL plasmid DNA solution (0.5 μg/μL) was diluted with 100 μL Optimem®. A liposome solution was prepared separately by diluting the initial liposomal stock solution (0.1 mM in cationic lipid) with Optimem® in specified proportions, to reach a final volume of 50 μL. Over this liposome solution 50 μL of the DNA stock solution was added, the tube was incubated for 30 minutes at room temperature and then the content diluted with 500 μL Optimem® (final volume of the lipoplex stock solution: 600 μL).
The lipoplexes was tested for their transfection properties over five different cancer cell lines—breast carcinoma (MCF-7 and MDA-Mb231), lung carcinoma (NCI-H23), prostate carcinoma (DU-145) and brain carcinoma (SWB-95). The cells were maintained in 10% fetal bovine serum (FBS)—enriched RPMI 1640 at 37° C. and 5% CO2 in a humidified atmosphere. Twenty-four hours prior to transfection the cells were transferred in 96-wells microtiter plate at a density of 20,000 cells/well. Each well received 100 μL medium and the plate was incubated in the same conditions. All experiments were done in triplicate or quadruplicate.
Immediately before transfection the medium was removed from each well and the cells were briefly washed with 200 μL sterile PBS. After removal of the PBS each well received 100 μL lipoplex stock solution and the plate was placed in the incubator for 1 hour. Then, 100 μL medium was added to each well and the plate was incubated for 24 hours. […]

[3] = Cationic liposome size by dynamic light scattering; format: physicochemical
Method: as §2, §1

[4] = tested on: lung cancer cell line NCI-H23; experiment: Luciferase (pGL3) transfection efficiency of lipoplexes, NCI-H23; format: cell-based, human; details: exposure from one hour to three hours; data not shown
[5] = cholesterol at 1:1 molar ratio to cationic lipid
[6] = molar ratio of cholesterol to lipid halved

Row | SMILES | Tc (critical temperature), Pure [1] [°C] | Tc (critical temperature), With cholesterol (1:1 molar ratio) ([1]; 1:1 molar ratio) [°C] | cytotoxicity (WST-1 viability) (cancer cell line NCI-H23) | transfection efficiency (in words) [2] | further results
1 | CCCCCCCCCCCCCC(=O)OCC(COC(=O)CCCCCCCCCCCCC)[n+]1c(C)cc(C)cc1C.[O-][Cl+3]([O-])([O-])[O-] [Lipid 5BMyr, 1-(1,3-dimyristoyloxypropane-2-yl)-2,4,6-trimethylpyridinium perchlorate] | 60.2 | 58.4 | more cytotoxic |  | transfection efficiency, counterion study [2]: most efficient lipoplexes
2 | CCCCCCCCCCCC(=O)Oc1ccc(CC[n+]2c(C)cc(C)cc2C)cc1OC(=O)CCCCCCCCCCC.F[P-](F)(F)(F)(F)F [Lipid 7ALau, 1-(3,4-dilauroyloxyphenylethyl)-2,4,6-trimethylpyridinium hexafluorophosphate] | 140.7 | 126.9 |  | best transfection efficiency | transfection efficiency relative to another derivative of series 7 ([2]; cholesterol 1:1, FIG. 2): about five times more active than the decanoyl derivative 7ACpc; also recorded: about ten times more efficient than the oleoyl derivative 7AOle
3 | CCCCCCCC/C=C\CCCCCCCC(=O)OCC(C[n+]1c(C)cc(C)cc1C)OC(=O)CCCCCCC/C=C\CCCCCCCC.F[P-](F)(F)(F)(F)F (stereo not drawn) [Lipid 3AOle, 1-(2,3-dioleoyloxypropyl)-2,4,6-trimethylpyridinium hexafluorophosphate] | 67.9 | 58.5 |  | secondary peak | average size of the cationic vesicles [3, 5]: 113 nm; average size of the cationic vesicles [3, 6]: 103 nm
4 | CCCCCCCC/C=C\CCCCCCCC(=O)OCC(COC(=O)CCCCCCC/C=C\CCCCCCCC)[n+]1c(C)cc(C)cc1C.F[P-](F)(F)(F)(F)F [Lipid 5AOle, 1-(1,3-dioleoyloxypropane-2-yl)-2,4,6-trimethylpyridinium hexafluorophosphate] | 17.0 | 31.0 |  | low transfection efficiency | 
5 | CCCCCCCCCCCCCC(=O)OCC(COC(=O)CCCCCCCCCCCCC)[n+]1c(C)cc(C)cc1C.[Cl-] [Lipid 5DMyr, 1-(1,3-dimyristoyloxypropane-2-yl)-2,4,6-trimethylpyridinium chloride] | 76.3 | 81.2 | minimum cytotoxicity; also recorded: lower cytotoxic effect |  | cytotoxic effect on longer cell exposure to lipoplexes (cancer cell line NCI-H23; exposure from one hour to three hours, data not shown): without any visible cytotoxic effect; transfection efficiency on longer cell exposure to lipoplexes [4]: higher transfection efficiencies; transfection efficiency, counterion study [2]: surpassed DOTAP in transfection efficiency
6 | CCCCCCCCCCCCCC(=O)OCC(COC(=O)CCCCCCCCCCCCC)[n+]1c(C)cc(C)cc1C.[I-] [Lipid 5EMyr, 1-(1,3-dimyristoyloxypropane-2-yl)-2,4,6-trimethylpyridinium iodide] | 60.8 | 80.1 | more cytotoxic |  | transfection efficiency, counterion study [2]: followed by the hexafluorophosphate 5AMyr, chloride 5DMyr, tetrafluoroborate 5CMyr, and iodide 5EMyr
7 | CC(=O)OCC(COC(C)=O)[n+]1c(C)cc(C)cc1C.F[B-](F)(F)F |  |  |  |  | melting point: 110 to 111 °C
8 | CC(=O)OCC(C[n+]1c(C)cc(C)cc1C)OC(C)=O.F[B-](F)(F)F (stereo not drawn) |  |  |  |  | melting point: 119 to 120 °C
9 | CCCCCCCCCCCCCCCCCC(=O)OCC(C[n+]1c(C)cc(C)cc1C)OC(=O)CCCCCCCCCCCCCCCCC.F[P-](F)(F)(F)(F)F (stereo not drawn) [Lipid 3ASte, 1-(2,3-distearoyloxypropyl)-2,4,6-trimethylpyridinium hexafluorophosphate] | 122.5 | 112.7 |  |  | 
10 | CCCCCCCCCCCCCC(=O)OCC(C[n+]1c(C)cc(C)cc1C)OC(=O)CCCCCCCCCCCCC.F[P-](F)(F)(F)(F)F (stereo not drawn) [Lipid 3AMyr, 1-(2,3-dimyristoyloxypropyl)-2,4,6-trimethylpyridinium hexafluorophosphate] | 121.3 | 112.5 |  | highest transfection peaks | Tc (critical temperature), With DOPE (1:1 molar ratio) ([1]; with DOPE, 1:1 molar ratio): 107.7 °C; average size of the cationic vesicles [3, 5]: 132 nm; average size of the cationic vesicles [3, 6]: 89 nm
11 | CCCCCCCC/C=C\CCCCCCCC(=O)OCC(C[n+]1c(C)cc(C)cc1C)OC(=O)CCCCCCC/C=C\CCCCCCCC.F[B-](F)(F)F (stereo not drawn) [Lipid 21AbO, 1-(2,3-Dioleoyloxypropyl)-2,4,6-trimethylpyridinium tetrafluoroborate] |  |  |  |  | Tc (phase transition temperature) ([1]; lipids 21 and 25, DSC, heating rate 5° C./minute): 52 °C
12 | CCCCCCCCCCCCCC(=O)Oc1ccc(CC[n+]2c(C)cc(C)cc2C)cc1OC(=O)CCCCCCCCCCCCC.F[P-](F)(F)(F)(F)F [Lipid 7AMyr, 1-(3,4-dimyristoyloxyphenylethyl)-2,4,6-trimethylpyridinium hexafluorophosphate] | 141.2 | 125.8 |  |  | 
13 | CCCCCCCCCCCCCC(=O)OCC(COC(=O)CCCCCCCCCCCCC)[n+]1c(C)cc(C)cc1C.F[B-](F)(F)F [Lipid 5CMyr, 1-(1,3-dimyristoyloxypropane-2-yl)-2,4,6-trimethylpyridinium tetrafluoroborate] | 58.4 | 55.2 | minimum cytotoxicity |  | 
